Measured values: patent US20230372498A1, “PLK1 SELECTIVE DEGRADATION INDUCING COMPOUND” (UPPTHERA, priority 2020, published 2023)

Molecular target: T1, PLK1 (Homo sapiens, UniProt P53350)
T1 construct: endogenous in cells; host or cells: HeLa
Assay: PLK1 protein degradation in HeLa cells, Western blotting (PLK1/GAPDH ratio)
Type: cell-based
Conditions: 6 hours compound incubation; for DC50: measured only if the grade of Dmax is A or B; for Dmax: thymidine block and release, 10 points three-fold from 3 μM, PLK1 to GAPDH ratio, read-out: Dmax
Outline: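 PLK1 level measured by Western blot as PLK1/GAPDH in HeLa lysates (15 μg protein per lane). Cells were blocked with 2 mM thymidine 24 h, released 4 h, and exposed 6 h to compound, 10 concentrations, 3-fold steps, top 3 μM.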

T1 sequence (P53350 whole entry): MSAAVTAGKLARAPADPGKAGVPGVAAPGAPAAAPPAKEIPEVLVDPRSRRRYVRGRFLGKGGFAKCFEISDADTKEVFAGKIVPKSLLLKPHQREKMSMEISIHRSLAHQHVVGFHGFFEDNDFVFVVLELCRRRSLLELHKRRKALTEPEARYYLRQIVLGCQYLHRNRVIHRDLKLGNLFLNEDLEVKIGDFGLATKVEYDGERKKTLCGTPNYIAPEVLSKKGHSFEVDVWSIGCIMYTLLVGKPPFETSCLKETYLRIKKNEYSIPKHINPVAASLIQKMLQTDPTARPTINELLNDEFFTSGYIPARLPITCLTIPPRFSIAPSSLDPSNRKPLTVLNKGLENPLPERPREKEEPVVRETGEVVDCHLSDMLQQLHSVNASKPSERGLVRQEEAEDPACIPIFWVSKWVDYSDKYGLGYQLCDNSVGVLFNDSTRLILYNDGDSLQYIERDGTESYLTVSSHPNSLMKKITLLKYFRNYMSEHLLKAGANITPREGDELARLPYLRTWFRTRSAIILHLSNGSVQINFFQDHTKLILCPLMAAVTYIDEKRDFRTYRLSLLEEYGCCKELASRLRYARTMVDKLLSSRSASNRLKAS

Row | SMILES | DC50 | Dmax
1 | COc1cc(C(=O)NCCOCCNc2cccc3c2C(=O)N(C2CCC(=O)NC2=O)C3=O)c(F)cc1Nc1ncc2c(n1)N(C1CCCC1)CC(F)(F)C(=O)N2C (stereo not shown) [Compound 151, 4-((9-cyclopentyl-7,7-difluoro-5-methyl-6-oxo-6,7,8,9-tetrahydro-5H-pyrimido[4,5-b][1,4]diazepin-2-yl)amino)-N-(2-(2-((2-(2,6-dioxopiperidin-3-yl)-1,3-dioxoisoindolin-4-yl)amino)ethoxy)ethyl)-2-fluoro-5-methoxybenzamide] | ≤ 500 nM | 60 to 80%
2 | COc1cc(C(=O)NCCCCCCCCNc2cccc3c2C(=O)N(C2CCC(=O)NC2=O)C3=O)c(F)cc1Nc1ncc2c(n1)N(C1CCCC1)CC(F)(F)C(=O)N2C (stereo not shown) [Compound 154, 4-((9-cyclopentyl-7,7-difluoro-5-methyl-6-oxo-6,7,8,9-tetrahydro-5H-pyrimido[4,5-b][1,4]diazepin-2-yl)amino)-N-(8-((2-(2,6-dioxopiperidin-3-yl)-1,3-dioxoisoindolin-4-yl)amino)octyl)-2-fluoro-5-methoxybenzamide] |  | < 60%
3 | COc1cc(C(=O)NCCOCCCNc2cccc3c2C(=O)N(C2CCC(=O)NC2=O)C3=O)c(F)cc1Nc1ncc2c(n1)N(C1CCCC1)CC(F)(F)C(=O)N2C (stereo not shown) [Compound 155, 4-((9-cyclopentyl-7,7-difluoro-5-methyl-6-oxo-6,7,8,9-tetrahydro-5H-pyrimido[4,5-b][1,4]diazepin-2-yl)amino)-N-(2-(3-((2-(2,6-dioxopiperidin-3-yl)-1,3-dioxoisoindolin-4-yl)amino)propoxy)ethyl)-2-fluoro-5-methoxybenzamide] | ≤ 500 nM | 60 to 80%

Further lines, results first:

Row | DC50 | Dmax | SMILES
4 | ≤ 50 nM | ≥ 80% | COc1cc(C(=O)NCCOCCOCCNc2cccc3c2C(=O)N(C2CCC(=O)NC2=O)C3=O)c(F)cc1Nc1ncc2c(n1)N(C1CCCC1)CC(F)(F)C(=O)N2C (stereo not shown) [Compound 152, 4-((9-cyclopentyl-7,7-difluoro-5-methyl-6-oxo-6,7,8,9-tetrahydro-5H-pyrimido[4,5-b][1,4]diazepin-2-yl)amino)-N-(2-(2-(2-((2-(2,6-dioxopiperidin-3-yl)-1,3-dioxoisoindolin-4-yl)amino)ethoxy)ethoxy)ethyl)-2-fluoro-5-methoxybenzamide]
5 | ≤ 50 nM | ≥ 80% | COc1cc(C(=O)NCCOCCOCCOCCNc2cccc3c2C(=O)N(C2CCC(=O)NC2=O)C3=O)c(F)cc1Nc1ncc2c(n1)N(C1CCCC1)CC(F)(F)C(=O)N2C (stereo not shown) [Compound 153, 4-((9-cyclopentyl-7,7-difluoro-5-methyl-6-oxo-6,7,8,9-tetrahydro-5H-pyrimido[4,5-b][1,4]diazepin-2-yl)amino)-N-(2-(2-(2-(2-((2-(2,6-dioxopiperidin-3-yl)-1,3-dioxoisoindolin-4-yl)amino)ethoxy)ethoxy)ethoxy)ethyl)-2-fluoro-5-methoxybenzamide]
6 | ≤ 50 nM | ≥ 80% | COc1cc(C(=O)NCCOCCCOCCNc2cccc3c2C(=O)N(C2CCC(=O)NC2=O)C3=O)c(F)cc1Nc1ncc2c(n1)N(C1CCCC1)CC(F)(F)C(=O)N2C (stereo not shown) [Compound 156, 4-((9-cyclopentyl-7,7-difluoro-5-methyl-6-oxo-6,7,8,9-tetrahydro-5H-pyrimido[4,5-b][1,4]diazepin-2-yl)amino)-N-(2-(3-(2-((2-(2,6-dioxopiperidin-3-yl)-1,3-dioxoisoindolin-4-yl)amino)ethoxy)propoxy)ethyl)-2-fluoro-5-methoxybenzamide]
7 | ≤ 50 nM | ≥ 80% | COc1cc(C(=O)NCCCOCCCOCCNc2cccc3c2C(=O)N(C2CCC(=O)NC2=O)C3=O)c(F)cc1Nc1ncc2c(n1)N(C1CCCC1)CC(F)(F)C(=O)N2C (stereo not shown) [Compound 157, 4-((9-cyclopentyl-7,7-difluoro-5-methyl-6-oxo-6,7,8,9-tetrahydro-5H-pyrimido[4,5-b][1,4]diazepin-2-yl)amino)-N-(3-(3-(2-((2-(2,6-dioxopiperidin-3-yl)-1,3-dioxoisoindolin-4-yl)amino)ethoxy)propoxy)propyl)-2-fluoro-5-methoxybenzamide]
